# Laboratory results reported in a melting point compilation (Tetko et al.; mined from patent text by program, amines drawn as free bases though some values may be those of a salt).
row,Structure (SMILES),melting point [°C]
1,CNC[C@@H]1CN(c2nc3c(cc2F)c(=O)c(C(=O)O)cn3C2CC2)C[C@@H]1F (relative stereo),230 to 240
2,C=C1N(C(C)C)C(=O)OC12CCN(C(=O)NC(=O)c1cccnc1Cl)CC2,186 to 188
3,CC(C)(C)c1cc2c(c(C(C)(C)C)c1O)CC1(CCCCC1)S2,128
4,CSc1nc(C(C)(C)C)nn1C(=O)N(C)C,51 to 53
5,CN=C1SCC(O)(C(c2ccccc2)c2ccccc2)N1C (centres undefined),133 to 136
6,COC(=O)[C@@H]1CCCN1C(=O)C[C@H]1CCc2ccccc2C1,62 to 64
7,Cc1cccc2cc(N3CCN(C)CC3)[nH]c(=O)c12,224 to 225
8,ClCc1cnc2ccc(Cl)cc2c1Cl,102 to 105
9,O=c1c2cccc(O)c2nc(-c2ccc(O)cc2)n1-c1ccc(OCCCl)cc1,274 to 276
10,CN1Cc2cccc(S(N)(=O)=O)c2S1(=O)=O,195 to 197
11,N#Cc1cc(NC(=O)c2csc3c2CCCC3)ccc1N1CCC(O)CC1,172 to 173
12,CC(C)(C)OC(=O)Cc1ccc(CC(N=C(c2ccccc2)c2ccccc2)C(=O)OCc2ccccc2)cc1 (centres undefined),139 to 141
13,O=CN(O)C(COCc1ccccc1)CS(=O)(=O)N1CCN(c2cc(Cl)ncn2)CC1 (centres undefined),118 to 120
14,Fc1cc2cc3n(c2cc1Cl)CCNC3,195 to 197
15,O=C(Nc1cnc2c(c1)nc1n2CCC1O)c1cc2cc(F)ccc2n1Cc1cccc(F)c1 (centres undefined),288 to 290
16,COC(=O)COc1cccc2c1CCCC2=O,82 to 83
17,O=C(c1ccc(F)cc1)C1CCN(CCCO)CC1,107 to 109
18,O=c1oc2c(c(O)c1C(c1ccccc1)C1CC1)CCCCC2CCC1OCCO1 (centres undefined),68 to 76
19,c1ccc(NC2CCc3ccccc3C2)cc1 (centres undefined),193 to 196
20,Cn1cnc2c(N)cc(Br)cc21,170
21,COC(=O)[C@@H](O)[C@@H](OC(C)=O)[C@H](OC(C)=O)[C@H](C=O)OC(C)=O,104 to 110
22,CSc1cc([N+](=O)[O-])ccc1C(N)=O,202 to 204
23,CCOC(=O)c1ncn2c1CN(Cc1ccc(OC)cc1OC)C(=O)c1c(Cl)cccc1-2,129 to 130

row,Structure (SMILES),melting point [°C]
1,COc1ccc(N2C(=O)C3=C(CCCC3)C2CC(=O)O)cc1 (centres undefined),203 to 204
2,COc1ccc(C(=O)Nc2ccccc2C(O)C2CCCCN2)cc1 (centres undefined),158 to 160
3,COC(=O)c1cc(O)cc(O[C@@H](C)CO)c1,133
4,COc1cc(C(C)(C)CC(C)(C)C)c(OC)cc1C(=O)CCC(=O)O,142
5,CCN(CC)c1ccc(C(=NCCO[N+](=O)[O-])NC#N)cn1,119
6,O[C@H]1c2ccccc2C=C[C@@H]1OC(C(F)(F)F)C(F)(F)F,88.5 to 90
7,COc1ccc(-c2cnc(N3CCc4c([nH]c5ccccc45)C3C3Cc4ccccc4O3)nc2)cc1 (centres undefined),242 to 243
8,O=C(Nc1nc(C(=O)NC2CN3CCC2CC3)cs1)c1ccc(OCc2ccccc2)cc1 (centres undefined),196
9,CC(CO)N1CC(COc2cccc(Cl)c2)OC1=O (centres undefined),76 to 78
10,O=c1[nH]c2cc([N+](=O)[O-])c3c(c2[nH]c1=O)CN(C(=S)Nc1ccccc1)CC3,270 to 274
11,Sc1nccn1Cc1c(Cl)cccc1Cl,242 to 243
12,O=C(OC1c2ccccc2C(=O)N1c1ccc2ccc(Cl)nc2n1)N1CCN(C(=O)C(F)(F)F)CC1 (centres undefined),218
13,O=C(O)c1cc(Cl)c(Cl)c(S(=O)(=O)Cl)c1,203
14,CC1N(C)c2cc3[nH]c(=O)cc(C(F)(F)F)c3cc2C1(C)C (centres undefined),248 to 249
15,CCOC(=O)c1cnn2c1nc(N1CCCCC1)c1cnc3c(cnn3CC)c12,183 to 184
16,OC1CSC(Oc2cc(-c3ccccn3)ccc2Cl)C(O)C1O (centres undefined),108
17,CN(C)C(=S)n1c(SC(F)(F)C(F)F)nc(-c2ccccc2)c1-c1ccccc1,133 to 134
18,Cn1nc2c(sc3ccccc32)c1N,233
19,CN(C)C=C(C#N)C(=O)Nc1ccccc1-n1cccc1,167 to 169
20,CCOC(=O)C(=O)Nc1nccs1,174 to 177
21,COc1nc(OC)nc(OC(C(=O)OCc2ccccc2)C(C)(C)C)n1 (centres undefined),63 to 66
22,OC1Cc2ccccc2Sc2cc(F)c(Cl)cc21 (centres undefined),69 to 71
23,COC(=O)c1nc2nccc(S)n2n1,206

# Other lines, results leading:
row,melting point [°C],Structure (SMILES)
1,139 to 144,CNC(=O)N(O)Cc1ccc(OCCc2nc(-c3ccccc3)oc2C)cc1
2,76 to 78,COC(=O)[C@@]1(C)Oc2ccccc2N(C)C1=O
3,204,CCN(c1ccc(C(C)=O)cc1)c1nc(=O)c2cccnc2s1
4,180 to 182,CC(C)c1c(O)ccc2c1oc1ccc(C#N)cc12
5,155 to 157,COC(=O)c1nn(-c2ccccc2F)cc(OC)c1=O
6,155 to 157,Cc1c(C(=O)c2ccccc2Cl)c(NC(=O)CI)cn1C
7,144 to 158,CN1CCC(=O)C(C2c3ccccc3C=Cc3ccccc32)C1 (centres undefined)
8,210 to 213,CCNC(=O)CCC(=O)c1ccc(NS(C)(=O)=O)cc1
9,87 to 89,CC1(C)CC(=O)C(S(=O)(=O)Cc2ccccc2)=C(O)C1
10,204 to 205,CCN(CC)c1ccc(F)c2nc(Nc3ccc(Cl)cc3Cl)[nH]c12
11,131 to 133,CC12C=CC(=O)C=C1CCC1C2C(=O)CC2(C)C(SCc3ccc(Cl)c(Cl)c3)CCC12 (centres undefined)
12,117 to 118,O=c1ccc2ccc(OCCCN3CCN(c4ccccc4)CC3)cc2o1
13,253 to 254,O=C1CNc2ccc(S(=O)(=O)Oc3ccccc3)cc2N1
14,152 to 154,CCOc1ccc(C2=NN(Cc3ccc(C(=O)O)cc3)C(=O)[C@H]3CCCC[C@@H]23)cc1OCC (relative stereo)
15,132 to 134,COc1cc(N)c(C(=O)c2ccnc(Cl)c2)cc1OC
16,143 to 145,CC1=C2CCc3cc(C)ccc3N2CCC1=O
17,160 to 162,CCNc1nc(-c2ccc(NC(=O)NCc3cccnc3)cc2)ccc1C(=O)NCCN(C(C)C)C(C)C
18,150 to 151,CCOCCOc1ccc(-c2ccc3c(c2)C=C(C(=O)Nc2ccc(CN(C)C4CCOCC4)cc2)CCS3(=O)=O)cc1OCCOCC
19,177 to 180,CCOC(=O)c1cn(CC)c2c(C)c(F)c(F)cc2c1=O
20,185 to 189,Cc1cccc(NCC(=O)Nc2ccc(S(N)(=O)=O)cc2Cl)c1
21,160 to 170,O=c1[nH]nc(-c2ccc(NN=C(c3ccccc3)c3ccc(O)cc3O)cc2)c2ccccc12
22,134 to 136,CNc1cccc(-c2ccnc3c(C(=O)c4ccccc4)cnn23)c1
23,210 to 214,Cc1c(-c2ccc(OCC3CC3)cc2)nc2n(Cc3c(F)cccc3F)cc(-c3ccccc3)c(=O)n12
24,199 to 200,Clc1ccc2c(c1)C(c1ccccc1)=NCc1n[nH]nc1-2
25,114 to 117,CCCCNC(=O)C1Cc2c([nH]c3ccccc23)C(c2ccc3c(c2)OCO3)N1C(=O)C=Cc1ccccc1 (centres undefined)
26,136 to 139,CCCCCCN(C)c1ccc(C=C2SC(=S)N(CCNC(=O)C(F)(F)F)C2=O)cc1
27,> 300,COc1ccc(-n2c(=O)c(O)nc3cccnc32)cc1

row,melting point [°C],Structure (SMILES)
1,167,CC(C)Oc1ccc(Nc2nc(=O)n(C(C)C)c(=O)n2Cc2ccc(Cl)cc2)cc1Cl
2,206,COc1ccc(-c2cc(C(F)F)n3ncc(-c4ccncc4)c3n2)cc1
3,72 to 74,CCn1c(=O)oc2cc(N)ccc21
4,153 to 155,COCCOC(=O)Nc1cccc(C)c1CNc1cccn2c(C=O)c(C)nc12
5,92 to 93,Cc1oc(-c2cccc(Br)c2)nc1CCO
6,106 to 108,Cc1nc2ccc(S(=O)(=O)n3c(COC(C)C(=O)O)cc4cc(Cl)ccc43)cc2s1 (centres undefined)
7,131 to 133,Cn1nc2c(c1-c1ccc(Cl)cc1)Cc1ccccc1-2
8,93 to 95,Cc1ccc(N2CCc3ccccc32)c([N+](=O)[O-])c1
9,172,COc1ccc(CN(C)CCc2ccc(NC(=O)c3cccc4c(=O)c5cccc(OC)c5[nH]c34)cc2)cc1OC
10,95 to 96,CC[C@@H](Cc1ccc(OC)c(C(=O)NCc2ccccc2Oc2ccc(F)cc2)c1)C(=O)O
11,92 to 97,COc1ccc(C(CCc2ccccc2)C(=O)O)cc1 (centres undefined)
12,> 300,O=C(Nc1cc(C(=O)O)cc(C(=O)O)c1)Oc1ccc([N+](=O)[O-])cc1
13,215 to 216,COc1ccc(Oc2c(SCc3ccccc3)cc(C(=O)O)cc2S(N)(=O)=O)cc1
14,195,CCOc1ccc2c(c1)n(C1CCCCC1)c(=O)n2Cc1ccc(NC(=NC#N)NC)cc1OC
15,90,CCOC(=O)c1c(Nc2ccccc2N)c(C)cn1C
16,159 to 162,N#Cc1cc(C(=O)NNC(=O)c2occc2-c2ccccc2-c2ccccc2)ccc1O
17,164,CC(C(=O)c1ccc(Cl)cc1)n1ncn(-c2ccc(N3CCN(Cc4ccccc4)CC3)cc2)c1=O (centres undefined)
18,150 to 151,CCCc1cc(=O)oc2cc(OS(=O)(=O)c3ccc(C)cc3)c3c(c12)OC(C)(C)C=C3
19,140 to 143,O=C1c2cc(O)ccc2OCC1Cc1ccccc1 (centres undefined)
20,48 to 50,CC#CCOc1ccc(S(=O)(=O)N(C)C(C(=O)NO)c2ccc(OCCCNC(=O)OCc3ccccc3)cc2)cc1 (centres undefined)
21,110,CCC1=NNC(C)=C(C(=O)OC2CCCC2)C1c1cccc([N+](=O)[O-])c1 (centres undefined)
22,166,CC(=O)Nc1ccc(SC(CCc2ccc(Cl)cc2)Cn2ccnc2)cc1 (centres undefined)
23,165,CN(CCOCCO)S(=O)(=O)c1ccc(NC=C2C(=O)Nc3ccc4ncsc4c32)cc1
24,109 to 111,CCCC(=O)c1cnc2c(C)cccc2c1Nc1ccccc1F
25,210,CCCCS(=O)(=O)c1ccc(C(=O)Nc2ccc3cc(CN4CCCC4)cnc3c2C)cc1
26,156 to 157,CCOC(=O)c1cc2ccc(Cl)c(N(C)S(=O)(=O)c3cccs3)c2[nH]1
